Data published in article PMC7305075 (Cancer Chemotherapy and Pharmacology, 2020).
Where two headings read alike, the source gives them in different places. Blank lines part the entries; values can stand above or below the compound they belong to.

Columns and labels:
[1] = Plasma pharmacokinetics of paracetamol, paracetamol glucuronide and paracetamol sulphate in rats (HPLC-UV, non-compartmental); assay type: in vivo, Wistar rats; conditions: for Cmax / ka (absorption rate constant): plasma, mean ± SD (CV %)
Procedure: The experimental protocol assuming involvement of animals in this study was reviewed and approved by the Local Ethics Committee, Poznań, Poland (no 61/2017). All procedures were performed in accordance with the European Union regulations concerning the handling and use of laboratory animals. Adult male Wistar rats (weight 480–530 g) were used in the study. The animals were maintained under standard breeding conditions with a 12/12 h light–dark cycle (lights on at 06.00, lights off at 18.00) at constant room temperature (23 ± 2 °C), relative humidity of 55 ± 10% and given ad libitum access to food and water. The animals were allowed to acclimatise for a week before the beginning of the experiments. The rats were divided into three groups. […] To make sure that the animals received the entire dose of the drug, 1 mL of 10% DMSO was then administered to rinse the probe. 100 µL of blood was collected from each rat by cutting off a piece of his tail. The blood samples were collected into heparinised test tubes at the following time points: 0, 0.5, 1, 2, 3, 4, 5, 6, 7, 8, 10, 12, 24, 30, 48, 72, 96 h. […] All the blood samples were centrifuged at 2.880 g for 10 min at 4 °C.
Separation was achieved by isocratic elution of the mobile phase, comprising sodium sulphate 0.05 M pH 2.2 (adjusted with 85% orthophosphoric acid) and acetonitrile (93:7, v/v), at a flow rate of 1.0 mL/min through an BDS Hypersil® C18 column (150 mm × 4.6 mm, 5.0 μm particle size) (Thermo Electron Corporation®, Waltham, MA, USA). The total time of analysis for each run was 10 min. The column temperature was maintained at 25 °C, the UV detection wavelength was set at 254 nm and the injection volume was 50 μL. Theophylline was used as the internal standard (IS).
The maximum plasma concentration (Cmax) and the time to reach the Cmax (tmax) were derived directly from the observed plasma concentrations. The total area under the concentration–time curve (AUC) was estimated by the trapezoidal rule with extrapolation from time zero to infinity (AUC0-∞). The elimination half-life (t0.5) was estimated from ln2/kel. The apparent plasma drug clearance (Cl/F) was calculated by dividing the dose (D) by the AUC0-∞. The apparent volume of distribution (Vd/F) was estimated from D/(kel × AUC0-∞).

[2] = cited from earlier work
[3] = design: method as in PMID 26739624; conditions: ref [24], cited from earlier work
[4] = Plasma pharmacokinetics of sorafenib and sorafenib N-oxide in rats (HPLC-UV, non-compartmental); assay type: in vivo, Wistar rats; conditions: mean ± SD (CV %)
Procedure: The experimental protocol assuming involvement of animals in this study was reviewed and approved by the Local Ethics Committee, Poznań, Poland (no 61/2017). All procedures were performed in accordance with the European Union regulations concerning the handling and use of laboratory animals. Adult male Wistar rats (weight 480–530 g) were used in the study. The animals were maintained under standard breeding conditions with a 12/12 h light–dark cycle (lights on at 06.00, lights off at 18.00) at constant room temperature (23 ± 2 °C), relative humidity of 55 ± 10% and given ad libitum access to food and water. The animals were allowed to acclimatise for a week before the beginning of the experiments. The rats were divided into three groups. […] To make sure that the animals received the entire dose of the drug, 1 mL of 10% DMSO was then administered to rinse the probe. 100 µL of blood was collected from each rat by cutting off a piece of his tail. The blood samples were collected into heparinised test tubes at the following time points: 0, 0.5, 1, 2, 3, 4, 5, 6, 7, 8, 10, 12, 24, 30, 48, 72, 96 h. […]
The maximum plasma concentration (Cmax) and the time to reach the Cmax (tmax) were derived directly from the observed plasma concentrations. […] The apparent plasma drug clearance (Cl/F) was calculated by dividing the dose (D) by the AUC0-∞. […]

[5] = cited from earlier work; remark: listed apart in the source
[6] = in vitro study; ref [42]; cited from earlier work
UGT2B15 = tested on: UGT2B15; design: method as in Liu et al. [26]; conditions: in vitro, recombinant UDP-glucuronyl transferases and liver microsomes, paracetamol glucuronidation; ref Liu et al. [26]; cited from earlier work
UGT1A9 = conditions: cited from earlier work
UGT1A1 = conditions: in vitro studies; ref [21]; cited from earlier work
[7] = design: method as in Karbownik et al. [36]–[38]; conditions: in vivo; ref Karbownik et al. [36]–[38]; cited from earlier work
[8] = design: method as in Karbownik et al. [36], [37]; conditions: ref Karbownik et al. [36], [37]; cited from earlier work
[9] = IS+PA group (with sorafenib) vs. IIIPA group
[10] = single oral paracetamol 100 mg/kg b.w. + sorafenib 100 mg/kg b.w. (IS+PA group)
[11] = single oral paracetamol 100 mg/kg b.w. alone (IIIPA group)
[12] = analogous dose (100 mg/kg) orally, ref Mekjaruskul et al. [35]
[13] = single dose 100 mg/kg orally, ref Pingili et al. [34]
[14] = in vitro, recombinant UDP-glucuronyl transferases and liver microsomes, paracetamol glucuronidation, ref Liu et al. [26]

decrease in AUC0-∞ [1, 9]: 42%
reduction in Cmax [1, 9]: 48%
Cmax [1, 10]: 19830 ng/mL
Cmax [1, 11]: 38380 ng/mL
Structure (SMILES): CC(=O)Nc1ccc(O[C@@H]2O[C@H](C(=O)O)[C@@H](O)[C@H](O)[C@H]2O)cc1 [Paracetamol glucuronide, paracetamol glucuronide]

increase in AUC0-∞ [1, 9]: 71%
increase in Cmax [1, 9]: 33%
ka (absorption rate constant) [1, 10]: 2.09 ± 1.11 h⁻¹
ka (absorption rate constant) [1, 11]: 2.35 ± 0.99 h⁻¹
Structure (SMILES): CC(=O)Nc1ccc(O)cc1 [Paracetamol]
Cmax [2, 12]: 19100 ng/mL
t0.5 [2, 12]: 21.29 min
tmax [2, 12]: 1.0 h
Cmax [2, 13]: 5040 ng/mL
t0.5 [2, 13]: 266 min
tmax [2, 13]: 1.16 h
fraction conjugated with cysteine ([3]; metabolism in the liver): 3%
fraction conjugated with glucuronic acid ([3]; metabolism in the liver): 60%
fraction conjugated with sulphuric acid ([3]; metabolism in the liver): 30%
fraction N-hydroxylated through cytochrome P-450 (CYP2E1) to NAPQI [3]: 5–10%

tmax [4, 10]: 15.5 h
tmax ([4]; single oral sorafenib 100 mg/kg b.w. alone (IIS group)): 16.3 h
Structure (SMILES): CNC(=O)c1cc(Oc2ccc(NC(=O)Nc3ccc(Cl)c(C(F)(F)F)c3)cc2)cc[n+]1[O-] [Sorafenib N-oxide, sorafenib N-oxide]

Structure (SMILES): CNC(=O)c1cc(Oc2ccc(NC(=O)Nc3ccc(Cl)c(C(F)(F)F)c3)cc2)ccn1 [Sorafenib]
Cmax ([5]; ref Wang [27]): 230.86 ng/mL
tmax ([5]; ref Wang [27]): 8.14 h
Cmax ([5]; ref Wang [39]): 338 ng/mL
binding to human plasma proteins [6]: 99.8%
inhibition of UGT2B15 (UGT2B15): inhibited
inhibition of UGT1A9 (UGT1A9; in vitro studies, ref [21]): particularly inhibits
inhibition of UGT1A9 (UGT1A9; [14]): inhibited
inhibition of UGT1A1 (UGT1A1): particularly inhibits

Structure (SMILES): Cc1nc(Nc2ncc(C(=O)Nc3c(C)cccc3Cl)s2)cc(N2CCN(CCO)CC2)n1 [dasatinib]
inhibition of UGT2B15 (UGT2B15): inhibited
inhibition of UGT1A9 (UGT1A9; [14]): inhibited

Structure (SMILES): C#Cc1cccc(Nc2ncnc3cc(OCCOC)c(OCCOC)cc23)c1 [erlotinib]
decrease of the AUC0-∞ of paracetamol after administration of the TKI [7]: 35.5%
drop of the Cmax of paracetamol after administration of the TKI [7]: 18.9%
increase in AUC0-t of the TKI on co-administration with paracetamol [8]: 31%
increase in Cmax of the TKI on co-administration with paracetamol [8]: 88%

Structure (SMILES): CS(=O)(=O)CCNCc1ccc(-c2ccc3ncnc(Nc4ccc(OCc5cccc(F)c5)c(Cl)c4)c3c2)o1 [lapatinib]
decrease of the AUC0-∞ of paracetamol after administration of the TKI [7]: 48.8%
drop of the Cmax of paracetamol after administration of the TKI [7]: 55.7%
increase in AUC0-t of the TKI on co-administration with paracetamol [8]: 240%
increase in Cmax of the TKI on co-administration with paracetamol [8]: 184%

Structure (SMILES): CCN(CC)CCNC(=O)c1c(C)[nH]c(/C=C2\C(=O)Nc3ccc(F)cc32)c1C [sunitinib]
decrease of the AUC0-∞ of paracetamol after administration of the TKI [7]: 68.19%
drop of the Cmax of paracetamol after administration of the TKI [7]: 63.95%
